Results published in PubChem BioAssay (NCI).
Several values for one entry are separate records, joined by “and”; a condition that tells them apart may be missing. Identical values can stand only once.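 Tested at 5 concentrations; 48 h exposure; 96-well plates; endpoints linearly interpolated, else capped at highest concentration. GI50 marks 50% less growth. Definition used: TGI = concentration required for complete inhibition of growth.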

Key:
Assay in all cases: NCI-60 cell line screen, 48 h
A549 NSCLC = test system: A549 NSCLC
COLO 205 colon = test system: COLO 205 colon
HCC-2998 colon = test system: HCC-2998 colon
MDA-MB-435 = test system: MDA-MB-435
NCI/ADR-RES ovarian = test system: NCI/ADR-RES ovarian
OVCAR-4 ovarian = test system: OVCAR-4 ovarian
PC-3 prostate = test system: PC-3 prostate
RPMI-8226 leukemia = test system: RPMI-8226 leukemia
SF-539 CNS = test system: SF-539 CNS
SK-MEL-5 melanoma = test system: SK-MEL-5 melanoma

Row | Structure (SMILES) | GI50 (A549 NSCLC) | TGI (A549 NSCLC) | GI50 (COLO 205 colon) | TGI (COLO 205 colon) | GI50 (HCC-2998 colon) | TGI (HCC-2998 colon) | GI50 (MDA-MB-435) | TGI (MDA-MB-435) | GI50 (NCI/ADR-RES ovarian) | TGI (NCI/ADR-RES ovarian) | GI50 (OVCAR-4 ovarian) | TGI (OVCAR-4 ovarian) | GI50 (PC-3 prostate) | TGI (PC-3 prostate) | GI50 (RPMI-8226 leukemia) | TGI (RPMI-8226 leukemia) [µM] | GI50 (SF-539 CNS) | TGI (SF-539 CNS) | GI50 (SK-MEL-5 melanoma) | TGI (SK-MEL-5 melanoma)
1 | COc1ccc(C(=O)/C=C/c2ccc(OCc3cccc(C(F)(F)F)c3)c(OC)c2)cc1OC | 67.7 µM | > 1000 µM | 61.6 µM | > 1000 µM | 131 µM | > 1000 µM | 45.8 µM | > 1000 µM | 42.1 µM | > 1000 µM | 51.7 µM | > 1000 µM | 61.4 µM | > 1000 µM | 25.3 µM | 94 | 65.3 µM | > 1000 µM | 38.4 µM | 301 µM
2 | Cc1c(C(=O)Nc2ccc(N3C[C@@H](C)O[C@@H](C)C3)nc2)cccc1-c1ccc(OC(F)(F)F)cc1 | 4.91 µM and 6.91 µM | 22.1 µM and 32.1 µM | 13.5 µM and 19.9 µM | > 65 µM and 58.8 µM | 12.4 µM and 15.5 µM | 36.1 µM and 42.3 µM | 7.29 µM and 5.89 µM | 49.2 µM and 38 µM | 5.69 µM and 13.5 µM | 26.6 µM and 42.1 µM | 4.28 µM and 11.5 µM | 21.4 µM and 36.2 µM | 5.44 µM and 6.68 µM | 27 µM and 36.8 µM | 5.7 µM and 12 µM | > 100 | 6.74 µM and 10.5 µM | 22 µM and 27.3 µM | 3.83 µM and 5.23 µM | 20.8 µM and 38.3 µM
3 | Oc1c(C(c2ccc(F)cc2)N2CCCCC2)ccc2cncnc12 (stereo not drawn) | 0.377 µM | > 51.3 µM | 3.3 µM | > 100 µM | 2.09 µM | > 100 µM | 0.412 µM | > 100 µM | 2.58 µM | > 100 µM | 1.77 µM | > 100 µM | 0.426 µM | > 100 µM | 0.555 µM | > 100 | 0.388 µM | > 81.2 µM | 0.529 µM | 3.63 µM
4 | CC1Cc2c(Cl)ncnc2N(C)c2ccccc21 (stereo not drawn) | 4.85 µM | > 100 µM | 1.77 µM | 3.41 µM | 3.01 µM | 10.6 µM | 3.24 µM | 16.7 µM | 2.69 µM | 12.4 µM | 3.02 µM | > 100 µM | 3.9 µM | 66.9 µM | 3.54 µM | 16.4 | 4.56 µM | 37.2 µM | 1.85 µM | 3.62 µM
5 | O=C(Nc1cccc([N+](=O)[O-])c1)c1cccc(C(=O)Nc2cccc([N+](=O)[O-])c2)c1 | > 100 µM | > 100 µM | > 100 µM | > 100 µM | > 100 µM | > 100 µM | > 100 µM | > 100 µM | > 100 µM | > 100 µM | > 100 µM | > 100 µM | > 100 µM | > 100 µM | > 100 µM | > 100 | 27.8 µM | > 100 µM | > 100 µM | > 100 µM
6 | NS(=O)(=O)c1ccc(-n2nc3c(c2-c2cccs2)Cc2ccccc2-3)cc1 | 20.7 µM | 51.1 µM | 25.3 µM | 69.3 µM | 12.8 µM | 25.4 µM | 11.8 µM | 27.6 µM | 12.4 µM | 26.1 µM | 29.9 µM | > 100 µM | 6.76 µM | 20.6 µM | 6.68 µM | 26.6 | 12.1 µM | 25.1 µM | 10.5 µM | 22.5 µM
7 | COc1cc2c(cc1OC)C(Cl)C(c1ccc(Br)cc1)=C2Cl (stereo not drawn) | – | 33 µM | – | 29.1 µM | – | 27.4 µM | – | 17.4 µM | – | 30.9 µM | – | 63.5 µM | – | 21.6 µM | – | 15.2 | – | 26.1 µM | – | 28.6 µM
8 | CC1(C)OCC2OC(n3cnc4c(N)nc(Cl)nc43)C(OS(C)(=O)=O)C2O1 (stereo not drawn) | – | > 100 µM | – | > 100 µM | – | > 100 µM | – | > 100 µM | – | > 100 µM | – | > 100 µM | – | > 100 µM | – | > 100 | – | > 100 µM | – | > 100 µM
9 | Cc1cc(OCc2ccc(C(F)(F)F)cc2)c2c(c1)C(=O)C=C(NCCN1CCCC1)C2=O | 2.85 µM | 9.68 µM | 1.9 µM | 3.72 µM | 1.87 µM | 3.46 µM | 1.62 µM | 3.02 µM | 6.04 µM | 20.5 µM | 4.01 µM | 15.5 µM | 5.36 µM | 19.5 µM | 1.87 µM | 4.36 | 1.68 µM | 3.24 µM | 1.53 µM | 2.88 µM
10 | O=C1C=CC2C3C(=O)N(c4ccccc4)C(=O)C3C1N2Cc1ccccc1 (stereo not drawn) | 14.9 µM | 29.7 µM | – | 5.37 µM | 7.95 µM | 18.7 µM | 2.72 µM | 8.05 µM | 2.55 µM | 8.75 µM | 5.54 µM | 17.7 µM | 4.67 µM | 13 µM | 1.59 µM | 5.18 | 1.66 µM | 3.81 µM | 3.57 µM | 6.88 µM
11 | COc1ccc2c3ccnc(C(F)(F)F)c3n(CCCCN)c2c1 | 11.6 µM | 26.3 µM | 2.74 µM | 12.1 µM | 5.23 µM | 16.7 µM | 5.69 µM | 20.7 µM | 8.6 µM | 28.1 µM | 11.7 µM | 25.5 µM | 1.96 µM | 13.9 µM | 3.05 µM | 15.8 | 6.58 µM | 20.2 µM | 2.83 µM | 9.05 µM
12 | Nc1nc(-c2ccc3c(c2)/C(=C\c2cc(Br)c(O)c(Br)c2)C(=O)N3)cs1 | > 25 µM | > 25 µM | 15.1 µM | > 25 µM | 17.8 µM | > 25 µM | 4.68 µM | 12 µM | > 23.4 µM | > 25 µM | > 25 µM | > 25 µM | 13.6 µM | > 25 µM | 14.9 µM | > 25 | 11.9 µM | > 25 µM | 5.4 µM | 12.1 µM
13 | COc1cccc(N2CC(O)=C(c3nc4ccccc4s3)C2=N)c1 | 0.656 µM | > 56.6 µM | 0.472 µM | > 100 µM | 0.23 µM | 3.57 µM | 0.0478 µM | 0.362 µM | 0.286 µM | > 23.2 µM | 6.19 µM | > 100 µM | 0.32 µM | > 100 µM | – | > 100 | 0.451 µM | 26.6 µM | 0.211 µM | 23 µM
14 | COc1cc2c(cc1OCC(=O)Nc1ccc(Cl)cc1C(=O)c1ccccc1Cl)N=CC1CCCN1C2=O (stereo not drawn) | 16.8 µM | 33 µM | 14.2 µM | 30.8 µM | 13.4 µM | 34.3 µM | 13 µM | 26.3 µM | 21.5 µM | 64.8 µM | 14.4 µM | 32.9 µM | 12.3 µM | 33.2 µM | 20.3 µM | 98.8 | 19.6 µM | 33.9 µM | 10 µM | 21.9 µM
15 | CCCCCCCCN(CCCCCCCC)CC(O)c1cc(-c2ccccc2)nc2ccc(OC)cc12 (stereo not drawn) | > 100 µM | > 100 µM | 22.1 µM | > 100 µM | > 100 µM | > 100 µM | 32.1 µM | > 100 µM | 16.3 µM | > 100 µM | 51 µM | > 100 µM | 47.7 µM | > 100 µM | 10.3 µM | 44.3 | 22.3 µM | 64.8 µM | 34.4 µM | > 100 µM
16 | Cc1nnc(N/N=C/c2ccc([N+](=O)[O-])o2)[nH]c1=O | 2.57 µM | > 49.5 µM | 2.53 µM | > 100 µM | 1.14 µM | > 100 µM | 0.908 µM | > 100 µM | 1.75 µM | > 100 µM | 3.36 µM | > 100 µM | 0.512 µM | > 100 µM | 2.95 µM | > 32 | 0.447 µM | > 51.6 µM | 0.84 µM | 3.3 µM
17 | CCN(CC)CCOc1nc2ccccc2c2c1-c1ccc(OC)cc1C2=O | 0.514 µM | 4.55 µM | 0.49 µM | 1.88 µM | 1.26 µM | 3.21 µM | 0.881 µM | 2.36 µM | 0.807 µM | 34.5 µM | 1.36 µM | 6.83 µM | 1.44 µM | 23.3 µM | 0.449 µM | 2.15 | 1.34 µM | 4.25 µM | 1.52 µM | 3.09 µM
18 | Cc1ccc2ccccc2c1CSc1nc(N)nc2c1ncn2CC(C)C | – | > 100 µM | – | 20.2 µM | – | > 71.6 µM | – | > 84.4 µM | – | > 100 µM | – | > 100 µM | – | > 89.9 µM | – | > 73.3 | – | > 44.8 µM | – | 20.3 µM
19 | Cc1[nH]nc(C(F)(F)F)c1Cc1sc2c(c1C(=O)N1C[C@](C)(O)CO1)c(=O)n(C)c(=O)n2C(C)C | > 100 µM | > 100 µM | > 100 µM | > 100 µM | > 100 µM | > 100 µM | > 100 µM | > 100 µM | > 100 µM | > 100 µM | > 100 µM | > 100 µM | > 100 µM | > 100 µM | > 100 µM | > 100 | > 100 µM | > 100 µM | > 100 µM | > 100 µM
20 | OC(c1cc(C(F)(F)F)nc2c(Cl)cc(Cl)cc12)C1CCCCN1 (stereo not drawn) | – | > 52.2 µM | – | 9.29 µM | – | > 100 µM | – | 18.4 µM | – | 30.2 µM | – | 18.3 µM | – | > 43.1 µM | – | 9.19 | – | 29.9 µM | – | 22.6 µM
21 | Cn1nc(C(F)(F)F)cc1-c1cc(Cl)c(OCc2ccc(Cl)cc2)c(-c2ccc(Cl)c(C(F)(F)F)c2)c1O | 1.41 µM | 5.6 µM | 0.718 µM | 2.39 µM | 1.4 µM | 5.45 µM | 1.42 µM | 4.18 µM | 1.35 µM | 5.33 µM | 1.66 µM | 7.14 µM | 0.709 µM | 5.09 µM | 0.712 µM | 2.55 | 1.07 µM | 3.26 µM | 0.777 µM | 1.74 µM
22 | Clc1cnc(Nc2ccc(OCCN3CCCC3)cc2)nc1NCc1ccco1 | 2.56 µM | 16.3 µM | 1.71 µM | 4.05 µM | 2.92 µM | 9.59 µM | 2.73 µM | 11.5 µM | 3.15 µM | 9.53 µM | 2.86 µM | 13.9 µM | 2.66 µM | 8.53 µM | 2.25 µM | 5.49 | 1.67 µM | 3.64 µM | 1.62 µM | 3.42 µM
